Series [1] in a line: Paw edema induced by Freund's complete adjuvant in rats. Type of series: in vivo, Wistar rats. The following applies: X ± SD, n = 6, oral gavage once per day. The method, then: The anti-arthritic activity of Scutellaria baicalensis formula was confirmed in animal study. Eight week-old male Wistar rats were received intradermal injections of 0.1 ml Freund's complete adjuvant (FCA, 7.5 mg/ml) to the paw of the right hindfood. At 14 days, paw edema was induced and rats were randomized into three groups (n=6) including control group, Scutellaria baicalensis formula group (30 mg/kg of Scutellaria baicalensis, 10 mg/kg of Glucosamine and 8 mg/kg of Chondroitin) and indomethacin group (12.5 mg/kg) which serves as a positive control. The treatment groups were given Scutellaria baicalensis formula or indomethacin by oral gavage once per day for a duration of 10 days. The diameters of paw were measured at 16, 20 and 24 days.

The test system of the next series is IL-6. The series is described as follows: IL-6 in serum of rats with adjuvant arthritis (ELISA). Type of series: in vivo. Conditions: end of experiment, X ± SD, n = 6. The text has this: (§1) Osteoarthritis is characterized by articular cartilage degradation and hypertrophic joint changes. Pro-inflammatory cytokines (IL-1, IL-6, TNF-α) are considered to play important roles in the initiation and development of osteoarthritis (Inoue et al. British Journal of Pharmacology 136:287-295 (2002)). Prostaglandin (PG) E2 has catabolic effects on the articular cartilage in OA (Futani et al J Immunother 2002 1;25(0):S61-S64). Therefore, we measured IL-6 and PGE2 in rats' blood with adjuvant-induced arthritis treated with Scutellaria baicalensis formula using ELISA assay. At the end of the experiment in Example 4.1, IL-6 in serum and PGE2 in articular fluid were assessed.

In another series the test system is PGE2. Description: PGE2 in articular fluid of rats with adjuvant arthritis (ELISA). The class given is in vivo. Conditions: end of experiment, X ± SD, n = 6.
Text: as §1
In general terms: An ELISA detects its analyte on a solid surface through an enzyme-linked reagent.

For the next series, the system named is SCC-25 cells. The series is described as follows: Previously determined IC50 of celecoxib. The class given is cell-based. The following applies: Homo sapiens, quantity inhibited not stated. As to the method: Benzo[a]pyrene (BaP), one of the compounds released from smoking, is a prototypical carcinogen. It is a polycyclic aromatic hydrocarbon (PAH) compound and is found in high quantity (20-40 ng) in each cigarette. BaP is metabolized and activated to become the ultimate carcinogenic metabolite [(+)-anti-7b,8a-dihydroxy-9a,10a-epoxy-7,8,9,10-tetrahydorbenzo[a]pyrene], also known as BPDE. […] We examined the counter-stimulatory effect of Scutellaria baicalensis on BaP-induced COX-2 activity. After the treating SCC-25 cells with BaP for 6 hours, the supernatants were removed and the cells were washed with PBS. […] This situation resembles the chemoprevention in the former smokers.

The conditions of series [2]: mice or rats; 500 mg/kg oral, 3000 mg/kg IM, 1500 mk/kg IV; cited from earlier work.
For series [3] the following is noted: following an oral dose; cited from earlier work.

pIC50: −log10 of the molar value.

Turning to `COc1ccc2c(c1)c(CC(=O)O)c(C)n2C(=O)c1ccc(Cl)cc1` [Indomethacin], the entries for the “changes of paw edema” value in series [1] (16 d), in series [1] (20 d) and in series [1] (24 d) were 0.929 ± 0.214, 0.771 ± 0.160 and 0.400 ± 0.245, respectively. In addition, the “IL-6” value in the series on IL-6 was 6.0 ± 3.1 pg/mL. Further, the “PGE2” value in the series on PGE2 was determined as 6.00 ± 3.1 pg/mL.
For `Cc1ccc(-c2cc(C(F)(F)F)nn2-c2ccc(S(N)(=O)=O)cc2)cc1` [celecoxib], the pIC50 (commonly −log10 of the IC50, conventionally taken in molar units) in the series with SCC-25 cells is 4.60.
For the compound `N[C@H]1C(O)O[C@H](CO)[C@@H](O)[C@@H]1O.O=S(=O)(O)O` (some centres unmarked) [glucosamine sulfate], in series [2], the mortality result is “No mortality”.
As for Chondroitin sulfate, the “tolerability / signs or symptoms of toxicity” value in series [3] was “well tolerated”.

The values above are taken from patent US20060165821A1, “Composition comprising scutellaria baicalensis and their uses thereof” (priority 2002, published 2006).
